Values joined by “and” are separate entries in the source; they are usually repeats but may differ in a detail not shown here. Identical values can stand only once. Toxic doses and inconclusive results are not listed.
System: P388 leukemia ip, CD2F1 mice, survival T/C
Assay: NCI In Vivo Anticancer Drug Screen. Data for tumor model P388 Leukemia (intraperitoneal) in CD2F1 (CDF1) mice
Conditions: endpoint: median survival time, higher = longer survival
Summary of the method: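 Mice carrying the transplanted tumor received test compound or vehicle. Survival was recorded in each group, and the value is the treated-group measurement divided by that of the vehicle-treated control group.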

[1] = dose: 60.0 mg/kg/injection, schedule: Q01DX005 (ip), vehicle: saline with Tween-80
[2] = dose: 120.0 mg/kg/injection, schedule: Q01DX005 (ip), vehicle: saline with Tween-80
[3] = dose: 240.0 mg/kg/injection, schedule: Q01DX005 (ip), vehicle: saline with Tween-80
[4] = dose: 50.0 mg/kg/injection, schedule: Q01DX005 (ip), vehicle: saline with Tween-80
[5] = dose: 100.0 mg/kg/injection, schedule: Q01DX005 (ip), vehicle: saline with Tween-80
[6] = dose: 200.0 mg/kg/injection, schedule: Q01DX005 (ip), vehicle: saline with Tween-80
[7] = dose: 6.25 mg/kg/injection, schedule: Q01DX009 (ip), vehicle: saline with Tween-80
[8] = dose: 12.5 mg/kg/injection, schedule: Q01DX009 (ip), vehicle: saline with Tween-80
[9] = dose: 50.0 mg/kg/injection, schedule: Q01DX009 (ip), vehicle: saline with Tween-80
[10] = dose: 100.0 mg/kg/injection, schedule: Q01DX009 (ip), vehicle: saline with Tween-80
[11] = dose: 200.0 mg/kg/injection, schedule: Q01DX009 (ip), vehicle: saline with Tween-80
[12] = dose: 100.0 mg/kg/injection, schedule: Q04DX003 (ip), vehicle: saline with Tween-80
[13] = dose: 200.0 mg/kg/injection, schedule: Q04DX003 (ip), vehicle: saline with Tween-80
[14] = dose: 400.0 mg/kg/injection, schedule: Q04DX003 (ip), vehicle: saline with Tween-80
[15] = dose: 50.0 mg/kg/injection, schedule: Q01DX005 (ip), vehicle: Klucel (hydroxypropylcellulose) (HPC)
[16] = dose: 100.0 mg/kg/injection, schedule: Q01DX005 (ip), vehicle: Klucel (hydroxypropylcellulose) (HPC)
[17] = dose: 200.0 mg/kg/injection, schedule: Q01DX005 (ip), vehicle: Klucel (hydroxypropylcellulose) (HPC)
[18] = dose: 25.0 mg/kg/injection, schedule: Q01DX005 (ip), vehicle: Klucel (hydroxypropylcellulose) (HPC)
[19] = dose: 12.5 mg/kg/injection, schedule: Q01DX005 (ip), vehicle: saline with Tween-80
[20] = dose: 25.0 mg/kg/injection, schedule: Q01DX005 (ip), vehicle: saline with Tween-80

## CN(CCOC(N)=O)CCOC(N)=O
[1]
  T/C: 92 % of control
[2]
  T/C: 97 % of control
[3]
  T/C: 95 % of control

## NC(=O)C1c2ccccc2C=Cc2ccccc21
[4]
  T/C: 93 % of control
[5]
  T/C: 90 % of control
[6]
  T/C: 93 % of control

## CC(=O)SC(C(=O)O)C(SC(C)=O)C(=O)O (stereo unspecified)
dose: 25.0 mg/kg/injection, schedule: Q01DX009 (ip), vehicle: other
  T/C: 106 % of control
dose: 50.0 mg/kg/injection, schedule: Q01DX009 (ip), vehicle: other
  T/C: 115 % of control
dose: 100.0 mg/kg/injection, schedule: Q01DX009 (ip), vehicle: other
  T/C: 102 % of control
dose: 200.0 mg/kg/injection, schedule: Q01DX009 (ip), vehicle: other
  T/C: 89 % of control

## NC(=O)c1cnc(N)nc1
[7]
  T/C: 93 % of control
[8]
  T/C: 91 % of control
dose: 25.0 mg/kg/injection, schedule: Q01DX009 (ip), vehicle: saline with Tween-80
  T/C: 98 % of control
[9]
  T/C: 94 % of control
[10]
  T/C: 98 % of control
[11]
  T/C: 106 % of control

## C=C1C(=O)OC(CCCCCCCCCCCCC)C1C(=O)O (stereo unspecified)
dose: 0.25 mg/kg/injection, schedule: Q01DX009 (ip), vehicle: saline with Tween-80
  T/C: 99 % of control
dose: 0.5 mg/kg/injection, schedule: Q01DX009 (ip), vehicle: saline with Tween-80
  T/C: 101 % of control
dose: 1.0 mg/kg/injection, schedule: Q01DX009 (ip), vehicle: saline with Tween-80
  T/C: 100 % of control

## C1=C(N2CCCC2)C(=[N+]2CCCC2)C(N2CCCC2)=C1
dose: 3.75 mg/kg/injection, schedule: Q01DX005 (ip), vehicle: saline with Tween-80
  T/C: 101 % of control
dose: 7.5 mg/kg/injection, schedule: Q01DX005 (ip), vehicle: saline with Tween-80
  T/C: 100 % of control
dose: 15.0 mg/kg/injection, schedule: Q01DX005 (ip), vehicle: saline with Tween-80
  T/C: 105 % of control

## COc1cc([N+](=O)[O-])cc2c1OC1(SC(C)(C)C(C)CN1C)C(C)=C2 (stereo unspecified)
[12]
  T/C: 105 % of control
[13]
  T/C: 100 % of control
[14]
  T/C: 95 % of control

## O=C1OC2C(I)C3CC2C1C3c1ccccc1 (stereo unspecified)
[4]
  T/C: 105 % of control
[5]
  T/C: 103 % of control
[6]
  T/C: 105 % of control

## O=C(Nc1ccccc1)c1cc(Cl)ccc1O
[12]
  T/C: 100 % of control
[13]
  T/C: 100 % of control
[14]
  T/C: 100 % of control

## Oc1ccc(C2c3ccccc3Oc3ccccc32)c2cccnc12
[15]
  T/C: 89 % of control
[16]
  T/C: 89 % of control
[17]
  T/C: 86 % of control

## CCOC(=O)/C=C(\Br)C(=O)OCC
dose: 3.15 mg/kg/injection, schedule: Q01DX009 (ip), vehicle: saline with Tween-80
  T/C: 108 % of control
[7]
  T/C: 99 % of control
[8]
  T/C: 119 % of control

## COC(=O)C(CCCN)NC(=O)c1ccccc1 (stereo unspecified)
dose: 50.0 mg/kg/injection, schedule: Q01DX005 (ip), vehicle: saline
  T/C: 99 % of control
dose: 100.0 mg/kg/injection, schedule: Q01DX005 (ip), vehicle: saline
  T/C: 92 % of control
dose: 200.0 mg/kg/injection, schedule: Q01DX005 (ip), vehicle: saline
  T/C: 90 % of control

## COc1cc2c(cc1C/C=C/c1cc(OC)c(OC)c(OC)c1)OCO2
[1]
  T/C: 93 % of control
[2]
  T/C: 87 % of control
[3]
  T/C: 86 % of control

## Nc1nc(N)c2nc(CNc3ccc(C(=O)NC(CC(=O)O)C(=O)O)cc3)cnc2n1 (stereo unspecified)
[8]
  T/C: 150 % of control
[9]
  T/C: 95 % of control
dose: 66.0 mg/kg/injection, schedule: Q04DX003 (ip), vehicle: saline with Tween-80
  T/C: 112 % of control
[13]
  T/C: 90 % of control

## CCn1c(=O)c2[nH]c(Br)nc2n(C2CC2)c1=O
dose: 50.0 mg/kg/injection, schedule: Q01DX009 (ip), vehicle: Klucel (hydroxypropylcellulose) (HPC)
  T/C: 104 % of control
dose: 100.0 mg/kg/injection, schedule: Q01DX009 (ip), vehicle: Klucel (hydroxypropylcellulose) (HPC)
  T/C: 106 % of control

## COc1c(C)[nH]ccc1=O
dose: 12.5 mg/kg/injection, schedule: Q01DX009 (ip), vehicle: saline
  T/C: 102 % of control and 105 % of control
dose: 25.0 mg/kg/injection, schedule: Q01DX009 (ip), vehicle: saline
  T/C: 101 % of control and 103 % of control
dose: 50.0 mg/kg/injection, schedule: Q01DX009 (ip), vehicle: saline
  T/C: 99 % of control and 102 % of control
dose: 100.0 mg/kg/injection, schedule: Q01DX009 (ip), vehicle: saline
  T/C: 99 % of control and 105 % of control
dose: 200.0 mg/kg/injection, schedule: Q01DX009 (ip), vehicle: saline
  T/C: 104 % of control and 107 % of control
dose: 400.0 mg/kg/injection, schedule: Q01DX009 (ip), vehicle: saline
  T/C: 104 % of control and 106 % of control

## CCOc1cccc(/C=N/NC(=O)C(=O)Nc2cccc(C(F)(F)F)c2)c1O
dose: 12.5 mg/kg/injection, schedule: Q01DX005 (ip), vehicle: Klucel (hydroxypropylcellulose) (HPC)
  T/C: 98 % of control
[18]
  T/C: 95 % of control
[15]
  T/C: 89 % of control and 90 % of control

## O=c1oc(-c2cccc(-c3nc4c(c(=O)o3)CCS4)c2)nc2c1CCS2
[15]
  T/C: 97 % of control
[16]
  T/C: 100 % of control
[17]
  T/C: 91 % of control

## N=C(N)n1c(N)nc2ccccc2c1=O
dose: 12.0 mg/kg/injection, schedule: Q01DX005 (ip), vehicle: Klucel (hydroxypropylcellulose) (HPC)
  T/C: 108 % of control
[19]
  T/C: 100 % of control
[18]
  T/C: 101 % of control
[20]
  T/C: 104 % of control
[15]
  T/C: 121 % of control
[4]
  T/C: 97 % of control

## CS(=O)(=O)c1snc(N)c1C#N
[19]
  T/C: 106 % of control
[20]
  T/C: 101 % of control
[4]
  T/C: 102 % of control

## Cc1cc([N+](=O)[O-])c(Cl)cc1NS(=O)(=O)c1ccccc1
dose: 50.0 mg/kg/injection, schedule: Q04DX003 (ip), vehicle: saline with Tween-80
  T/C: 100 % of control
[12]
  T/C: 95 % of control

## C=CC1CCCC[S+]1CC(=O)OCC (stereo unspecified)
dose: 25.0 mg/kg/injection, schedule: Q04DX002 (ip), vehicle: saline with Tween-80
  T/C: 91 % of control
dose: 50.0 mg/kg/injection, schedule: Q04DX002 (ip), vehicle: saline with Tween-80
  T/C: 101 % of control
dose: 100.0 mg/kg/injection, schedule: Q04DX002 (ip), vehicle: saline with Tween-80
  T/C: 103 % of control and 109 % of control

## Nc1ccc(S(=O)(=O)Nc2c(N)nc(SCC(=O)O)[nH]c2=O)cc1
dose: 60.0 mg/kg/injection, schedule: Q01DX005 (ip), vehicle: Klucel (hydroxypropylcellulose) (HPC)
  T/C: 92 % of control
dose: 120.0 mg/kg/injection, schedule: Q01DX005 (ip), vehicle: Klucel (hydroxypropylcellulose) (HPC)
  T/C: 96 % of control
dose: 240.0 mg/kg/injection, schedule: Q01DX005 (ip), vehicle: Klucel (hydroxypropylcellulose) (HPC)
  T/C: 92 % of control

## CCN(CC)CCN(CC)c1ccccc1
[4]
  T/C: 105 % of control
[5]
  T/C: 102 % of control

## O=C1OC(C2=CC(=O)c3ccccc3C2=O)C(Cl)=C1Cl (stereo unspecified)
[4]
  T/C: 121 % of control
[5]
  T/C: 109 % of control

## CN(C)c1ccc2c(NCCCCCCNc3ccnc4cc(N(C)C)ccc34)ccnc2c1
dose: 1.56 mg/kg/injection, schedule: Q01DX009 (ip), vehicle: distilled water + alcohol
  T/C: 116 % of control
dose: 6.25 mg/kg/injection, schedule: Q01DX009 (ip), vehicle: distilled water + alcohol
  T/C: 120 % of control
dose: 12.5 mg/kg/injection, schedule: Q01DX009 (ip), vehicle: distilled water + alcohol
  T/C: 150 % of control and 152 % of control
dose: 25.0 mg/kg/injection, schedule: Q01DX009 (ip), vehicle: distilled water + Tween-80 + alcohol
  T/C: 174 % of control
dose: 50.0 mg/kg/injection, schedule: Q01DX009 (ip), vehicle: distilled water + alcohol
  T/C: 168 % of control

## Cc1nc2c(cnn2C)cc1CCc1ccccc1
[1]
  T/C: 94 % of control
[2]
  T/C: 95 % of control
[3]
  T/C: 103 % of control

## COC(=O)/C=C(\C)NC(=NC(C)(C)C)c1ccccc1
[9]
  T/C: 98 % of control
[10]
  T/C: 101 % of control
[11]
  T/C: 94 % of control

## S=C1CC2CCCC(C2)N1 (stereo unspecified)
dose: 1.87 mg/kg/injection, schedule: Q01DX005 (ip), vehicle: Klucel (hydroxypropylcellulose) (HPC)
  T/C: 95 % of control
dose: 3.75 mg/kg/injection, schedule: Q01DX005 (ip), vehicle: Klucel (hydroxypropylcellulose) (HPC)
  T/C: 100 % of control
dose: 7.5 mg/kg/injection, schedule: Q01DX005 (ip), vehicle: Klucel (hydroxypropylcellulose) (HPC)
  T/C: 101 % of control and 94 % of control

Source: PubChem BioAssay AID330 (DTP/NCI, 2004)
